# Test results from patent publication US10272126B2, “Nanoparticle-stabilized microcapsules, dispersions comprising nanoparticle-stabilized microcapsules, and method for the treatment of bacterial biofilms” (The University of Massachusetts, priority 2015, dated 2019).
# Test system: NIH 3T3 fibroblast cells
# Assay: Biofilm-3T3 fibroblast co-culture: mammalian cell viability (LDH cytotoxicity assay)
# Type: cell-based
# Text: Scatters and lines represent 3T3 fibroblast cell viability. Bars represent log10 of colony forming units in biofilms. The data are average of triplicates and the error bars indicate the standard deviations.
# Biofilm infections within wounds interfere with the ability of the host to regenerate damaged tissue. See, e.g., Roy, S.; Elgharably, H.; Sinha, M.; Ganesh, K.; Chaney, S.; Mann, E.; Miller, C.; Khanna, S.; Bergdall, V. K.; Powell, H. M.; et al. Mixed-Species Biofilm Compromises Wound Healing by Disrupting Epidermal Barrier Function. J. Pathol. 2014, 233, 331-343. […] The co-cultures were treated with capsules for 3 hours, washed, and the viabilities of both fibroblasts and bacteria were measured. […]
# Testing solutions at different concentrations were made by diluting capsules into DMEM prior to use. […] Co-cultures were then analyzed using a LDH cytotoxicity assay to determine mammalian cell viability according the manufacturer's instructions. See, e.g., Decker, T.; Lohmann-Matthes, M. L. A Quick and Simple Method for the Quantitation of Lactate Dehydrogenase Release in Measurements of Cellular Cytotoxicity and Tumor Necrosis Factor (TNF) Activity. […] The solutions containing dispersed bacteria were then plated onto agar plates and colony forming units were counted after incubation at 37° C. overnight.
substance,measurement,value
peppermint oil,3T3 fibroblast cell viability in co-culture,toxic effects
